Results from PubChem BioAssay AID2060510 (Molecular Pharmacology Branch, DTP, NCI, 2025).
pIC50: −log10 of the molar value.

System: 439559-082-T-J2-PDC spheroids viability
Assay: Anticancer human tumor 439559-082-T-J2-PDC patient-derived colon adenocarcinoma cell line growth inhibition [GQUAD]
Conditions: for pIC50: curve of first compound; for viability, T/C: stronger effect = lower value; active means viability on the fitted dose curve at most 10% of control; inactive means the rest
Procedure, shortened: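 Multi-cell-type spheroids of tumor cells with HUVEC and mesenchymal stem cells, treated with drug combinations. Concentrations descend in half-log steps from near clinical Cmax, or from 10 microM where Cmax is unknown; viability read-out.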

[1] = second compound 0.0316 µM, first compound 0.000999 µM
[2] = second compound 0.0316 µM, first compound 0.00316 µM
[3] = second compound 0.0316 µM, first compound 0.00999 µM
[4] = second compound 0.0316 µM, first compound 0.0316 µM
[5] = second compound 0.0316 µM, first compound 0.0999 µM
[6] = second compound 0.0316 µM, first compound 0.316 µM
[7] = second compound 0.1 µM, first compound 0.000999 µM
[8] = second compound 0.1 µM, first compound 0.00316 µM
[9] = second compound 0.1 µM, first compound 0.00999 µM
[10] = second compound 0.1 µM, first compound 0.0316 µM
[11] = second compound 0.1 µM, first compound 0.0999 µM
[12] = second compound 0.1 µM, first compound 0.316 µM
[13] = second compound 0.316 µM, first compound 0.000999 µM
[14] = second compound 0.316 µM, first compound 0.00316 µM
[15] = second compound 0.316 µM, first compound 0.00999 µM
[16] = second compound 0.316 µM, first compound 0.0316 µM
[17] = second compound 0.316 µM, first compound 0.0999 µM
[18] = second compound 0.316 µM, first compound 0.316 µM
[19] = second compound 1 µM, first compound 0.000999 µM
[20] = second compound 1 µM, first compound 0.00316 µM
[21] = second compound 1 µM, first compound 0.00999 µM
[22] = second compound 1 µM, first compound 0.0316 µM
[23] = second compound 1 µM, first compound 0.0999 µM
[24] = second compound 1 µM, first compound 0.316 µM
[25] = second compound 3.16 µM, first compound 0.000999 µM
[26] = second compound 3.16 µM, first compound 0.00316 µM
[27] = second compound 3.16 µM, first compound 0.00999 µM
[28] = second compound 3.16 µM, first compound 0.0316 µM
[29] = second compound 3.16 µM, first compound 0.0999 µM
[30] = second compound 3.16 µM, first compound 0.316 µM
[31] = second compound 10 µM, first compound 0.000999 µM
[32] = second compound 10 µM, first compound 0.00316 µM
[33] = second compound 10 µM, first compound 0.00999 µM
[34] = second compound 10 µM, first compound 0.0316 µM
[35] = second compound 10 µM, first compound 0.0999 µM
[36] = second compound 10 µM, first compound 0.316 µM
[37] = second compound 0.0316 µM, first compound 0.1 µM
[38] = second compound 0.0316 µM, first compound 1 µM
[39] = second compound 0.0316 µM, first compound 3.16 µM
[40] = second compound 0.0316 µM, first compound 10 µM
[41] = second compound 0.1 µM, first compound 0.1 µM
[42] = second compound 0.1 µM, first compound 1 µM
[43] = second compound 0.1 µM, first compound 3.16 µM
[44] = second compound 0.1 µM, first compound 10 µM
[45] = second compound 0.316 µM, first compound 0.1 µM
[46] = second compound 0.316 µM, first compound 1 µM
[47] = second compound 0.316 µM, first compound 3.16 µM
[48] = second compound 0.316 µM, first compound 10 µM
[49] = second compound 1 µM, first compound 0.1 µM
[50] = second compound 1 µM, first compound 1 µM
[51] = second compound 1 µM, first compound 3.16 µM
[52] = second compound 1 µM, first compound 10 µM
[53] = second compound 3.16 µM, first compound 0.1 µM
[54] = second compound 3.16 µM, first compound 1 µM
[55] = second compound 3.16 µM, first compound 3.16 µM
[56] = second compound 3.16 µM, first compound 10 µM
[57] = second compound 10 µM, first compound 0.1 µM
[58] = second compound 10 µM, first compound 1 µM
[59] = second compound 10 µM, first compound 3.16 µM
[60] = second compound 10 µM, first compound 10 µM
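Further: spheroids exposed to the agents for 7 days before readout.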
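Wherever viability, T/C is given: percent of luminescence signal in DMSO vehicle wells taken as 100% viability.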

CC[C@@]1(O)C(=O)OCc2c1cc1n(c2=O)Cc2cc3c(CN(C)C)c(O)ccc3nc2-1 + Cc1cnc(CNC(=O)c2c(=O)c3ccc(N4CCCN(C)CC4)nc3n3c2sc2ccccc23)cn1
< 6.50: pIC50 (second compound 0.0316 µM) | pIC50 (second compound 0.1 µM) | pIC50 (second compound 0.316 µM) | pIC50 (second compound 1 µM) | pIC50 (second compound 3.16 µM) | pIC50 (second compound 10 µM)
inactive: viability, T/C [1] 98.9% | viability, T/C [2] 89.6% | viability, T/C [3] 94.6% | viability, T/C [4] 88.7% | viability, T/C [5] 82.4% | viability, T/C [6] 81.9% | viability, T/C [7] 91.7% | viability, T/C [8] 81.5% | viability, T/C [9] 96.5% | viability, T/C [10] 95.8% | viability, T/C [11] 83% | viability, T/C [12] 81.8% | viability, T/C [13] 79.7% | viability, T/C [14] 85.2% | viability, T/C [15] 79.5% | viability, T/C [16] 75.8% | viability, T/C [17] 83.4% | viability, T/C [18] 69% | viability, T/C [19] 73.5% | viability, T/C [20] 70.3% | viability, T/C [21] 74.5% | viability, T/C [22] 79.1% | viability, T/C [23] 80% | viability, T/C [24] 67.4% | viability, T/C [25] 71.5% | viability, T/C [26] 72% | viability, T/C [27] 68.6% | viability, T/C [28] 71.4% | viability, T/C [29] 72.8% | viability, T/C [30] 66.9% | viability, T/C [31] 64.3% | viability, T/C [32] 71.8% | viability, T/C [33] 66.6% | viability, T/C [34] 70.7% | viability, T/C [35] 66.4% | viability, T/C [36] 61.1%

CCc1c2c(nc3ccc(O)cc13)-c1cc3c(c(=O)n1C2)COC(=O)[C@]3(O)CC + Cc1cnc(CNC(=O)c2c(=O)c3ccc(N4CCCN(C)CC4)nc3n3c2sc2ccccc23)cn1
7.17: pIC50 (second compound 10 µM)
inactive: viability, T/C [1] 99.4% | viability, T/C [2] 83.5% | viability, T/C [3] 78.8% | viability, T/C [4] 66.4% | viability, T/C [5] 53.7% | viability, T/C [6] 43.1% | viability, T/C [7] 88.7% | viability, T/C [8] 79.5% | viability, T/C [9] 76.2% | viability, T/C [10] 68.1% | viability, T/C [11] 53.4% | viability, T/C [12] 34% | viability, T/C [13] 77.3% | viability, T/C [14] 70.1% | viability, T/C [15] 72.3% | viability, T/C [16] 65% | viability, T/C [17] 55% | viability, T/C [18] 31.8% | viability, T/C [19] 67.3% | viability, T/C [20] 69.9% | viability, T/C [21] 60.6% | viability, T/C [22] 59.4% | viability, T/C [23] 50.1% | viability, T/C [24] 33.8% | viability, T/C [25] 65.7% | viability, T/C [26] 74.8% | viability, T/C [27] 56.9% | viability, T/C [28] 55.7% | viability, T/C [29] 47.6% | viability, T/C [30] 24.6% | viability, T/C [31] 60.6% | viability, T/C [32] 60.4% | viability, T/C [33] 58.3% | viability, T/C [34] 52.8% | viability, T/C [35] 48.8% | viability, T/C [36] 20.1%
6.80: pIC50 (second compound 0.0316 µM)
7.21: pIC50 (second compound 3.16 µM)
6.90: pIC50 (second compound 0.316 µM)
6.91: pIC50 (second compound 0.1 µM)
7.03: pIC50 (second compound 1 µM)

COc1cc(C2c3cc4c(cc3C(OC3OC5COC(C)OC5C(O)C3O)C3COC(=O)C23)OCO4)cc(OC)c1O (stereo not drawn) + Cc1cnc(CNC(=O)c2c(=O)c3ccc(N4CCCN(C)CC4)nc3n3c2sc2ccccc23)cn1
inactive: viability, T/C [4] 92.8% | viability, T/C [37] 99.9% | viability, T/C [6] 93.4% | viability, T/C [38] 85.5% | viability, T/C [39] 84.1% | viability, T/C [40] 60.3% | viability, T/C [10] 86.2% | viability, T/C [41] 83.7% | viability, T/C [12] 85.1% | viability, T/C [42] 76.5% | viability, T/C [43] 80.5% | viability, T/C [44] 59.9% | viability, T/C [16] 94.4% | viability, T/C [45] 86.5% | viability, T/C [18] 81.4% | viability, T/C [46] 75.2% | viability, T/C [47] 70.2% | viability, T/C [48] 56.3% | viability, T/C [22] 74.8% | viability, T/C [49] 78.9% | viability, T/C [24] 70.6% | viability, T/C [50] 70% | viability, T/C [51] 64.8% | viability, T/C [52] 55.1% | viability, T/C [28] 63.6% | viability, T/C [53] 73.3% | viability, T/C [30] 66% | viability, T/C [54] 66.5% | viability, T/C [55] 66.2% | viability, T/C [56] 56.3% | viability, T/C [34] 72.3% | viability, T/C [57] 63.6% | viability, T/C [36] 62.5% | viability, T/C [58] 60.8% | viability, T/C [59] 59.8% | viability, T/C [60] 49.8%
< 5.00: pIC50 (second compound 0.0316 µM) | pIC50 (second compound 0.1 µM) | pIC50 (second compound 0.316 µM) | pIC50 (second compound 1 µM) | pIC50 (second compound 3.16 µM) | pIC50 (second compound 10 µM)

COc1cccc2c1C(=O)c1c(O)c3c(c(O)c1C2=O)CC(O)(C(=O)CO)CC3OC1CC(N)C(O)C(C)O1 (stereo not drawn) + Cc1cnc(CNC(=O)c2c(=O)c3ccc(N4CCCN(C)CC4)nc3n3c2sc2ccccc23)cn1
5.42: pIC50 (second compound 10 µM)
5.15: pIC50 (second compound 0.316 µM)
5.17: pIC50 (second compound 1 µM)
inactive: viability, T/C [4] 99% | viability, T/C [37] 95.1% | viability, T/C [6] 87.3% | viability, T/C [38] 77.6% | viability, T/C [39] 48.9% | viability, T/C [40] 45.3% | viability, T/C [10] 101% | viability, T/C [41] 96.7% | viability, T/C [12] 89.6% | viability, T/C [42] 70.3% | viability, T/C [43] 54.3% | viability, T/C [44] 45.3% | viability, T/C [16] 79.9% | viability, T/C [45] 73% | viability, T/C [18] 69.6% | viability, T/C [46] 79.3% | viability, T/C [47] 57.2% | viability, T/C [48] 45.9% | viability, T/C [22] 70% | viability, T/C [49] 73.3% | viability, T/C [24] 69.7% | viability, T/C [50] 63.6% | viability, T/C [51] 61.6% | viability, T/C [52] 44.7% | viability, T/C [28] 71% | viability, T/C [53] 67.2% | viability, T/C [30] 65% | viability, T/C [54] 60.3% | viability, T/C [55] 55.3% | viability, T/C [56] 41.1% | viability, T/C [34] 63.3% | viability, T/C [57] 67.7% | viability, T/C [36] 63.1% | viability, T/C [58] 54.2% | viability, T/C [59] 51% | viability, T/C [60] 44.2%
5.35: pIC50 (second compound 3.16 µM)
5.39: pIC50 (second compound 0.0316 µM)
5.27: pIC50 (second compound 0.1 µM)
